Source: patent publication US10149876B2, “Tripterygium wilfordii extracts to overcome chemotherapy resistance” (WESTERN UNIVERSITY OF HEALTH SCIENCES, priority 2012, dated 2018)
Where “and” joins values, the source holds several entries; their conditions need not be identical. Equal values may be shown once. Read-outs that look alike come from different tables or passages of the source.

What was measured:
[1] = test system: BT474-TxR cells; assay: SRB cell viability assay, Herceptin-resistant BT474-TxR cells; type: cell-based, human; details: 72 h
Protocol: PC3-TxR cells were plated into sterile, F-bottom Cellstar® 96 well cell culture plates with lids (Cat #655180, Purchased from Greiner Bio-one, Monroe, N.C.) by placing into each well, 100 μl of medium containing 3000 cells in RPMI 1640 supplemented with 10% fetal bovine serum (Thermo Scientific, Logan, Utah) and a solution of penicillin (100 U/ml) and streptomycin (100 μg/ml) (Life Technologies Grand Island, N.Y.). The cells were at passage 52 at the time of plating. Triplicate wells were assigned to each experimental condition tested, and a 24 hour recovery period for the cells following the seeding of the wells was allowed. During the recovery period, the cells were incubated at 37° C. and 5% CO2.
The LGT-E was prepared by adding an appropriate amount of LGT-E powder to DMSO to form a 500 mg/ml stock solution. The stock solution was alternately vortexed and sonicated until the LGT-E powder went into solution. The stock solution was diluted in RPMI 1640 medium (Mediatech, Manassas, Va., or Life Technologies Grand Island, NY) to reach the desired concentrations of LGT-E (e.g., 12, 25, or 60 μg/ml).
Pretreatment of the cells with LGT-E was carried out by aspirating the media from the wells, followed by adding 50 μl of LGT-E solution containing concentrations of either 12 or 25 μg/ml of LGT-E solution and incubation of the cells for two hours under conditions of 37° C. and 5% CO2.
Media was aspirated from each well, and replaced with a 10% solution of cold trichloroacetic acid (TCA) (Cat #: T6399, purchased from Sigma-Aldrich), and incubated for one hour at 4° C. After the TCA incubation, the TCA solution was aspirated, and the cells were washed five times with tap water. After removing the last wash, the plates were left with lids off at room temperature until the surfaces were dry, which took one to two hours. Then 50 μl of a 0.4% solution of sul-forhodamine B (SRB) sodium salt (Cat #: S9012, purchased from Sigma-Aldrich) was added to each well and the plates were incubated at room temperature for 20 to 30 minutes. Afterwards, the wells were washed five times with a 1% acetic acid solution in 10 mM TRIS base (Cat#: 161-0719, purchased from Bio-Rad Laboratories, Hercules, Calif.). The plates were subsequently left to dry for several hours or overnight. SRB that remained in the dried wells was solubilized by adding 100 μl of SRB solubilization solution (10 mM TRIS base) to each well, and placing the plates either on a gently-moving shaker or letting the plates remain stationary at room temperature until the SRB dissolves, which takes about five to ten minutes. The amount of SRB in each well, which correlated directly to the number of living cells at fixation, was determined spectrophotometrically at an absorbance of 565 nm by a microplate reader.

[2] = test system: SkBr3-TxR cells; assay: SRB cell viability assay, lapatinib-resistant SkBr3-TxR cells; type: cell-based, human; details: for viability at 0.001 µM / viability at 0.02 µM / viability at 0.067 µM / viability at 0.2 µM / viability at 0.67 µM / viability at 2 µM / viability at 6.7 µM / viability at 20 µM / IC50: Homo sapiens; for viability at 0.067 µM: Lapatinib 0.067 μM
Excerpt: FIG. 13 summarizes the data of Tables 32-33 in a graphical format.
FIG. 14 summarizes the data of Tables 34 and 35 in a graphical format.

CS(=O)(=O)CCNCc1ccc(-c2ccc3ncnc(Nc4ccc(OCc5cccc(F)c5)c(Cl)c4)c3c2)o1 [lapatinib] was tested, and the “mean A at 565 nm” value ([1]; Lapatinib 2 μM, no LGT-E pre-treatment (control to Table 30), background = 0.047) was 0.712, the “mean A at 565 nm” value ([1]; Lapatinib 2 μM, pre-treated with 25 μg/ml LGT-E, background = 0.047) was 0.482 and the “mean A at 565 nm” value ([1]; Lapatinib 2 μM, pre-treated with […] LGT-E, background = 0.045) was 0.533. The “mean A at 565 nm” value ([1]; Lapatinib 6.7 μM, no LGT-E pre-treatment (control to Table 28), background = 0.045) was 0.674, the “mean A at 565 nm” value ([1]; Lapatinib 6.7 μM, no LGT-E pre-treatment (control to Table 30), background = 0.047) was 0.648 and the “mean A at 565 nm” value ([1]; Lapatinib 6.7 μM, pre-treated with 25 μg/ml LGT-E, background = 0.047) was 0.355. The “mean A at 565 nm” value ([1]; Lapatinib 6.7 μM, pre-treated with […] LGT-E, background = 0.045) was 0.461, the “mean A at 565 nm” value ([1]; Lapatinib 20 μM, no LGT-E pre-treatment (control to Table 28), background = 0.045) was 0.594 and the “mean A at 565 nm” value ([1]; Lapatinib 20 μM, no LGT-E pre-treatment (control to Table 30), background = 0.047) was 0.515. The “mean A at 565 nm” value ([1]; Lapatinib 20 μM, pre-treated with 25 μg/ml LGT-E, background = 0.047) was 0.239, the “mean A at 565 nm” value ([1]; Lapatinib 20 μM, pre-treated with […] LGT-E, background = 0.045) was 0.405 and the viability at 0.001 µM ([2]; Lapatinib 0.001 μM, 72 h, no LGT-E pre-treatment (control to Table 34)) was 100%. For the same molecule, the viability at 0.001 µM ([2]; Lapatinib 0.001 μM, 72 h, pre-treated with […] LGT-E) was 100%, the viability at 0.001 µM ([2]; Lapatinib 0.001 μM, no chemosensitizing pre-treatment (Table 33)) was 100% and the viability at 0.02 µM ([2]; Lapatinib 0.02 μM, 72 h, no LGT-E pre-treatment (control to Table 34)) was 99.2%. For the same molecule, the viability at 0.02 µM ([2]; Lapatinib 0.02 μM, 72 h, pre-treated with […] LGT-E) was 97.2%, the viability at 0.02 µM ([2]; Lapatinib 0.02 μM, no chemosensitizing pre-treatment (Table 33)) was 103% and the viability at 0.067 µM ([2]; 72 h, no LGT-E pre-treatment (control to Table 34)) was 96.2%. It also gave a viability at 0.067 µM ([2]; 72 h, pre-treated with […] LGT-E) of 92.6%, a viability at 0.067 µM ([2]; no chemosensitizing pre-treatment (Table 33)) of 102% and a viability at 0.2 µM ([2]; Lapatinib 0.2 μM, 72 h, no LGT-E pre-treatment (control to Table 34)) of 93.1%. The viability at 0.2 µM ([2]; Lapatinib 0.2 μM, 72 h, pre-treated with […] LGT-E) was 90.3%, the viability at 0.2 µM ([2]; Lapatinib 0.2 μM, no chemosensitizing pre-treatment (Table 33)) was 97.2% and the viability at 0.67 µM ([2]; Lapatinib 0.67 μM, 72 h, no LGT-E pre-treatment (control to Table 34)) was 88.8%. It also gave a viability at 0.67 µM ([2]; Lapatinib 0.67 μM, 72 h, pre-treated with […] LGT-E) of 75.9%, a viability at 0.67 µM ([2]; Lapatinib 0.67 μM, no chemosensitizing pre-treatment (Table 33)) of 91.8% and a viability at 2 µM ([2]; Lapatinib 2 μM, 72 h, no LGT-E pre-treatment (control to Table 34)) of 70.4%. The viability at 2 µM ([2]; Lapatinib 2 μM, 72 h, pre-treated with […] LGT-E) was 60.9%, the viability at 2 µM ([2]; Lapatinib 2 μM, no chemosensitizing pre-treatment (Table 33)) was 77.2% and the viability at 6.7 µM ([2]; Lapatinib 6.7 μM, 72 h, no LGT-E pre-treatment (control to Table 34)) was 47.7%. For the same molecule, the viability at 6.7 µM ([2]; Lapatinib 6.7 μM, 72 h, pre-treated with […] LGT-E) was 34.9%, the viability at 6.7 µM ([2]; Lapatinib 6.7 μM, no chemosensitizing pre-treatment (Table 33)) was 46.4% and the viability at 20 µM ([2]; Lapatinib 20 μM, 72 h, no LGT-E pre-treatment (control to Table 34)) was 25.4%. For the same molecule, the viability at 20 µM ([2]; Lapatinib 20 μM, 72 h, pre-treated with […] LGT-E) was 18.3%, the viability at 20 µM ([2]; Lapatinib 20 μM, no chemosensitizing pre-treatment (Table 33)) was 26.4% and the IC50 ([2]; read-out: IC50 of drug when cells pre-treated with Chemosensitizing Agent before drug treatment) was 3.92 µM and 2.28 µg/mL. The IC50 ([2]; read-out: IC50 of drug when cells treated with drug only) was 6.2 µM and 3.6 µg/mL, the “mean A at 565 nm” value ([2]; Lapatinib 0.001 μM, 72 h, no LGT-E pre-treatment (control to Table 34), background = 0.044) was 2.294 and the “mean A at 565 nm” value ([2]; Lapatinib 0.001 μM, no chemosensitizing pre-treatment (Table 33), background = 0.047) was 2.298. The “mean A at 565 nm” value ([2]; Lapatinib 0.02 μM, 72 h, no LGT-E pre-treatment (control to Table 34), background = 0.044) was 2.276, the “mean A at 565 nm” value ([2]; Lapatinib 0.02 μM, 72 h, pre-treated with […] LGT-E, background = 0.044) was 2.151 and the “mean A at 565 nm” value ([2]; Lapatinib 0.02 μM, no chemosensitizing pre-treatment (Table 33), background = 0.047) was 2.357. The “mean A at 565 nm” value ([2]; Lapatinib 0.2 μM, 72 h, pre-treated with […] LGT-E, background = 0.044) was 1.999, the “mean A at 565 nm” value ([2]; Lapatinib 0.2 μM, no chemosensitizing pre-treatment (Table 33), background = 0.047) was 2.234 and the “mean A at 565 nm” value ([2]; Lapatinib 0.67 μM, 72 h, no LGT-E pre-treatment (control to Table 34), background = 0.044) was 2.038. The “mean A at 565 nm” value ([2]; Lapatinib 2 μM, 72 h, no LGT-E pre-treatment (control to Table 34), background = 0.044) was 1.614, the “mean A at 565 nm” value ([2]; Lapatinib 2 μM, 72 h, pre-treated with […] LGT-E, background = 0.044) was 1.348 and the “mean A at 565 nm” value ([2]; Lapatinib 2 μM, no chemosensitizing pre-treatment (Table 33), background = 0.047) was 1.775. For the same molecule, the “mean A at 565 nm” value ([2]; Lapatinib 6.7 μM, 72 h, no LGT-E pre-treatment (control to Table 34), background = 0.044) was 1.095, the “mean A at 565 nm” value ([2]; Lapatinib 6.7 μM, 72 h, pre-treated with […] LGT-E, background = 0.044) was 0.772 and the “mean A at 565 nm” value ([2]; Lapatinib 6.7 μM, no chemosensitizing pre-treatment (Table 33), background = 0.047) was 1.066. The “mean A at 565 nm” value ([2]; Lapatinib 20 μM, 72 h, no LGT-E pre-treatment (control to Table 34), background = 0.044) was 0.584, the “mean A at 565 nm” value ([2]; Lapatinib 20 μM, 72 h, pre-treated with […] LGT-E, background = 0.044) was 0.406 and the “mean A at 565 nm” value ([2]; Lapatinib 20 μM, no chemosensitizing pre-treatment (Table 33), background = 0.047) was 0.607.
